Earlier results, collected in patent US20110039787A1, “COMPOSITIONS, KITS AND METHODS FOR TREATING BENIGN PROSTATE HYPERPLASIA” (priority 2009, published 2011).

Tested on: BPH
Settings: cited from earlier work

CCOc1ccccc1OCCN[C@H](C)Cc1ccc(OC)c(S(N)(=O)=O)c1 [Tamsulosin]
IPSS change (maximum of known medicinal treatments, FIG. 2) (AUA Guideline on the Management of BPH (2006), historical comparison): approximately −7.5

cetrorelix glucoronate
Maximum reduction in mean IPSS (preliminary study, European Urology 54 (2008) 170-180): −5.4 to −5.9
